Test system: KFS cells
Assay: Cell metabolic activity assay (MTT assay)
Assay type: cell-based
Details: 6.25 to 100 micromolar concentration
Description: KFS cells were obtained from the Biosource Collection and Research Center (BCRC) of the Food Industry Research and Development Institute (Hsinchu, Taiwan). KFS cells were cultured in Dulbecco's modified eagle medium (DMEM) containing 10% FBS, 1.5 g/L sodium bicarbonate, 4 mM L-glutamine, 4.5 g/L glucose, 100 units/mL penicillin G, and 100 μg/mL streptomycin sulfate. All cells were incubated in a humidified environment with 5% CO2 and 37° C. The medium was refreshed every 2 days. KFS cells (2×10^4 cells/well) were seeded in 96-well plates overnight. KFS cells were exposed to different concentrations of a test drug in 100 μL of medium (for example, combination of 10 Chinese medicine ingredients). After 24 hours treatment, 10 μL of 5 mg/mL MTT (3-(4,5-dimethylthiazol-2-yl)-2,5-diphenyltetrazolium bromide) was added to each well. After incubation for 4 hours, cells were washed twice with 1×PBS. Next, 200 μL of dimethyl sulfoxide (DMSO) was added to each well. An absorbance value at 570 nm was determined for each well by using 650 nm as a reference wavelength. Compared with a control group (untreated with reagents), the absorbance may be correlated with the percentage of active cells. The cell metabolic activity rate is calculated as follows: Cell metabolic activity (%)=OD (treatment)/OD (control)×100%.

COc1cc(/C=C/C(=O)CC(=O)/C=C/c2ccc(O)c(OC)c2)ccc1O [Curcumin]
growth of keloid fibroblasts: inhibit the growth

Oc1ccc(C=Cc2cc(O)cc(O)c2)cc1 [Resveratrol]
growth of keloid fibroblasts: inhibit the growth

Source: patent US20230181661A1, “MUSHROOM-CONTAINING CHINESE MEDICINE COMPOUND COMPOSITION FOR KELOID SCAR TISSUE AND APPLICATION THEREOF” (ASIA UNIVERSITY, priority 2021, published 2023)
